Measurements from the supplement of paper PMC11061612.

Assays:
Assay in all cases: Bliss excess, mean over the matrix (fraction); higher = more synergy
CHL-1 (Melanoma) = test system: CHL-1 (Melanoma)
Method in brief: (§1)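 Cell lines in DMEM/F12 or RPMI with 10% FBS were plated in 1536-well plates, held 24 hours at 37°C, 5% CO2, then given two-drug dose matrices for 72 hours (DMSO typically 0.2%). Viability was read by CellTiter-Glo 2.0 luminescence and scaled as inhibition from 0 (vehicle wells) to 1 (blank wells). Combination Emax is the second-highest inhibition in the matrix; Bliss excess is observed combination effect minus expected EA + EB − EA·EB, EA and EB being single-agent effects.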

786-0 (Kidney Carcinoma) = test system: 786-0 (Kidney Carcinoma)
Method in brief: as §1

HuO-3N1 (Osteosarcoma) = test system: HuO-3N1 (Osteosarcoma)
Method in brief: as §1

KYM-1 (Rhabdomyosarcoma) = test system: KYM-1 (Rhabdomyosarcoma)
Method in brief: as §1

[1] = test system: Caov-3 (Ovarian Carcinoma)
Method in brief: as §1

[2] = test system: OV-90 (Ovarian Carcinoma)
Method in brief: as §1

[3] = test system: SNU-175 (Colorectal Carcinoma)
Method in brief: as §1

[4] = test system: EB-3 (Burkitt's Lymphoma)
Method in brief: as §1

[5] = test system: OCI-AML5 (Acute Myeloid Leukemia)
Method in brief: as §1

[6] = test system: NCI-H1755 (Lung Adenocarcinoma)
Method in brief: as §1

[7] = test system: COLO-684 (Endometrial Carcinoma)
Method in brief: as §1

[8] = test system: NCI-H196 (Small Cell Lung Carcinoma)
Method in brief: as §1

[9] = test system: PANC-02-03 (Pancreatic Carcinoma)
Method in brief: as §1

[10] = test system: PC-14 (Lung Adenocarcinoma)
Method in brief: as §1

[11] = test system: FLO-1 (Esophageal Adenocarcinoma)
Method in brief: as §1

[12] = test system: AsPC-1 (Pancreatic Carcinoma)
Method in brief: as §1

[13] = test system: NCI-H1623 (Lung Adenocarcinoma)
Method in brief: as §1

[14] = test system: AN3-CA (Endometrial Carcinoma)
Method in brief: as §1

[15] = test system: NCI-H1155 (Non-Small Cell Lung Carcinoma)
Method in brief: as §1

[16] = test system: HSC-3 (Oral Cavity Carcinoma)
Method in brief: as §1

Structure (SMILES)	Bliss excess (CHL-1 (Melanoma))	Bliss excess (786-0 (Kidney Carcinoma))	Bliss excess (HuO-3N1 (Osteosarcoma))	Bliss excess (KYM-1 (Rhabdomyosarcoma))	Bliss excess [1]	Bliss excess [2]	Bliss excess [3]	Bliss excess [4]	Bliss excess [5]	Bliss excess [6]	Bliss excess [7]	Bliss excess [8]	Bliss excess [9]	Bliss excess [10]	Bliss excess [11]	Bliss excess [12]	Bliss excess [13]	Bliss excess [14]	Bliss excess [15]	Bliss excess [16]
CC1(C)CCC(CN2CCN(c3ccc(C(=O)NS(=O)(=O)c4ccc(NCC5CCOCC5)c([N+](=O)[O-])c4)c(Oc4cnc5[nH]ccc5c4)c3)CC2)=C(c2ccc(Cl)cc2)C1 [Venetoclax] + C1CN(CCC1(C(=O)N[C@@H](CCO)C2=CC=C(C=C2)Cl)N)C3=NC=NC4=C3C=CN4 [Capivasertib] (first compound max 1 µM, 7x7, partner max 3 µM)	-0.0266	-0.0428	-0.0347	-0.0269	-0.0458	-0.0796	-0.06	-0.0683	-0.0057	-0.034	-0.0821	-0.0377	-0.0742	-0.038	-0.0841	-0.088	-0.0643	0.0482	-0.0482	-0.0501
CC1(C)CCC(CN2CCN(c3ccc(C(=O)NS(=O)(=O)c4ccc(NCC5CCOCC5)c([N+](=O)[O-])c4)c(Oc4cnc5[nH]ccc5c4)c3)CC2)=C(c2ccc(Cl)cc2)C1 [Venetoclax] + C=CCn1c(=O)c2cnc(Nc3ccc(N4CCN(C)CC4)cc3)nc2n1-c1cccc(C(C)(C)O)n1 [AZD1775] (first compound max 1 µM, partner max 1 µM)	0.0577	-0.0686	-0.0172	0.0082	0.0265	-0.0168	-0.0735	-0.0193	-0.0397	0.054	-0.0644	-0.0007	-0.0699	-0.0027	0.0161	-0.0879	-0.0218	-0.0253	-0.0417	-0.0216
CC1(C)CCC(CN2CCN(c3ccc(C(=O)NS(=O)(=O)c4ccc(NCC5CCOCC5)c([N+](=O)[O-])c4)c(Oc4cnc5[nH]ccc5c4)c3)CC2)=C(c2ccc(Cl)cc2)C1 [Venetoclax] + CCN(CCO)CCCOc1ccc2c(Nc3cc(CC(=O)Nc4cccc(F)c4)[nH]n3)ncnc2c1 [AZD2811] (first compound max 1 µM, 7x7, partner max 1 µM)	0.0784	-0.0469	0.0175	-0.0017	-0.0544	-0.0546	-0.0552	0.0036	-0.0195	-0.0135	-0.0358	-0.0463	-0.0283	0.0131	-0.019	-0.0755	-0.0165	0.0345	0.132	-0.0475
CC1(C)CCC(CN2CCN(c3ccc(C(=O)NS(=O)(=O)c4ccc(NCC5CCOCC5)c([N+](=O)[O-])c4)c(Oc4cnc5[nH]ccc5c4)c3)CC2)=C(c2ccc(Cl)cc2)C1 [Venetoclax] + CN(C)CCCOc1ccc(-c2ccc3ncc4c(c3c2)n(C2CCOCC2)c(=O)n4C)cn1 [AZD0156] (first compound max 1 µM, 7x7, partner max 1 µM)	0.0082	-0.0327	-0.0235	0.013	-0.0386	-0.041	-0.0511	0.0498	-0.0618	0.0342	-0.0356	-0.0333	-0.0541	0.0043	-0.113	-0.1	-0.0133	-0.06	-0.0214	0.012
CC1(C)CCC(CN2CCN(c3ccc(C(=O)NS(=O)(=O)c4ccc(NCC5CCOCC5)c([N+](=O)[O-])c4)c(Oc4cnc5[nH]ccc5c4)c3)CC2)=C(c2ccc(Cl)cc2)C1 [Venetoclax] + COc1cc(Nc2ncc3c(n2)-c2ccc(Cl)cc2C(c2c(F)cccc2OC)=NC3)ccc1C(=O)O [Alisertib] (first compound max 1 µM, 7x7, partner max 10 µM)	0.238	-0.0114	-0.0154	0.0069	-0.119	-0.0536	0.007	-0.0103	0.17	-0.0281	-0.0153	-0.0371	-0.0527	0.0366	-0.0379	-0.0701	0.045	0.0374	0.346	0.0079
CC1(C)CCC(CN2CCN(c3ccc(C(=O)NS(=O)(=O)c4ccc(NCC5CCOCC5)c([N+](=O)[O-])c4)c(Oc4cnc5[nH]ccc5c4)c3)CC2)=C(c2ccc(Cl)cc2)C1 [Venetoclax] + C[C@@H]1COCCN1C2=NC(=NC(=C2)C3(CC3)[S@](=N)(=O)C)C4=C5C=CNC5=NC=C4 [AZD6738] (first compound max 1 µM, 7x7, partner max 10 µM)	0.0493	-0.0882	-0.0375	-0.0119	-0.0574	0.0022	-0.0392	-0.0047	0.0391	-0.0578	0.005	0.0092	-0.0199	-0.021	-0.0338	-0.0301	0.0068	-0.0068	0.0582	-0.0022
CC1(C)CCC(CN2CCN(c3ccc(C(=O)NS(=O)(=O)c4ccc(NCC5CCOCC5)c([N+](=O)[O-])c4)c(Oc4cnc5[nH]ccc5c4)c3)CC2)=C(c2ccc(Cl)cc2)C1 [Venetoclax] + C[C@@H](Nc1cc(F)cc(F)c1)c1cc(C(=O)N(C)C)cc2c(=O)cc(N3CCOCC3)oc12 [AZD8186] (first compound max 1 µM, 7x7, partner max 3 µM)	-0.0397	-0.0095	0.0158	-0.0138	-0.0548	-0.0441	-0.0201	-0.0366	0.0529	0.0229	-0.261	-0.03	-0.0527	-0.0169	-0.0712	-0.0817	-0.0215	-0.0453	-0.026	-0.0286
CC1(C)CCC(CN2CCN(c3ccc(C(=O)NS(=O)(=O)c4ccc(NCC5CCOCC5)c([N+](=O)[O-])c4)c(Oc4cnc5[nH]ccc5c4)c3)CC2)=C(c2ccc(Cl)cc2)C1 [Venetoclax] + Cc1cc2ncnn2cc1Nc1ncc2c(n1)n(C1CCOCC1)c(=O)n2C [AZD7648] (first compound max 1 µM, 7x7, partner max 10 µM)	-0.0264	-0.0487	0.044	-0.0074	-0.159	-0.0639	-0.0327	-0.0225	-0.0238	-0.025	-0.0205	-0.0385	-0.0646	-0.0163	-0.114	-0.0803	-0.0006	-0.0108	-0.041	0.0185
CC1(C)CCC(CN2CCN(c3ccc(C(=O)NS(=O)(=O)c4ccc(NCC5CCOCC5)c([N+](=O)[O-])c4)c(Oc4cnc5[nH]ccc5c4)c3)CC2)=C(c2ccc(Cl)cc2)C1 [Venetoclax] + Cn1cnc2c(F)c(Nc3ccc(Br)cc3Cl)c(C(=O)NOCCO)cc21 [Selumetinib] (first compound max 1 µM, 7x7, partner max 3 µM)	-0.0418	-0.0347	-0.011	-0.003	-0.0295	-0.0345	-0.0157	-0.0241	0.111	0.0328	-0.0263	-0.044	-0.0386	-0.0229	-0.0485	-0.0748	-0.0046	-0.0076	-0.0317	-0.0043
